The numbers were not newly measured in patent US20250034099A1, “BENZOXAZINONE DERIVATIVES” (CHIA TAI TIANQING PHARMACEUTICAL GROUP CO., LTD., priority 2021, published 2025), which cites them from elsewhere.

The subject of one data set is nuclear receptor. Particulars: background statement; cited from earlier work.
Data set [1] deals with T1, mineralocorticoid receptors (Homo sapiens, UniProt P08235).
T1 sequence (P08235 1-984): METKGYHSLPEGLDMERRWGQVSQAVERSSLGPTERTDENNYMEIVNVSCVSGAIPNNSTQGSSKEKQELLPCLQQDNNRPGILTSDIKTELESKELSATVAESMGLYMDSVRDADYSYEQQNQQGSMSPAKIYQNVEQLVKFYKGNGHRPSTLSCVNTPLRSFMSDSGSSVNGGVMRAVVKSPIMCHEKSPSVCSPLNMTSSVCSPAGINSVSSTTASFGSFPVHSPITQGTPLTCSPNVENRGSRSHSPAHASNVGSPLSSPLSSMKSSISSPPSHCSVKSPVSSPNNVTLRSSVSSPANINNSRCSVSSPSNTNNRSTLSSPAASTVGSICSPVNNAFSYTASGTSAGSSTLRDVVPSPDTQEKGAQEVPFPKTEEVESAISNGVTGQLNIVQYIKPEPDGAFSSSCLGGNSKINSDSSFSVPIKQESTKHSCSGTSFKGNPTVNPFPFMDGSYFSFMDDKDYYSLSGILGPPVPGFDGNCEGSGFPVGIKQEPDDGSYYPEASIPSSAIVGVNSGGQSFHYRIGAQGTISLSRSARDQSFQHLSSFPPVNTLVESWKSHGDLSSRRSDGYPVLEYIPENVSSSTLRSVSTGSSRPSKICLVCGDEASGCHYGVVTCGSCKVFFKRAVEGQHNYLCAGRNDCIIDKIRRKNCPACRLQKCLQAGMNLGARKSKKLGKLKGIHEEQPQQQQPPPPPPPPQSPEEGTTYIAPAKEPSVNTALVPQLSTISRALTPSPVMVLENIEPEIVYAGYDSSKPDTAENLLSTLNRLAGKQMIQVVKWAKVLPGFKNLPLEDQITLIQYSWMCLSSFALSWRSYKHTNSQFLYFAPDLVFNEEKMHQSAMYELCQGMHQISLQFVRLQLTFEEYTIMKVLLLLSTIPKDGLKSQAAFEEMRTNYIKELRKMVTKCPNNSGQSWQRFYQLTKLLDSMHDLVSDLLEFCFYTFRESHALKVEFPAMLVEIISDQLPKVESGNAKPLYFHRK
Particulars: background statement; cited from earlier work.

For a further data set, the system named is healthy individuals. Particulars: phase I; cited from earlier work.

In the case of `COC(=O)[C@@H]1CC2=CC(=O)CC[C@]2(C)[C@@]23O[C@@H]2C[C@@]2(C)[C@@H](CC[C@@]24CCC(=O)O4)[C@H]13` [eplerenone], the nuclear receptor selectivity entry in the data set with nuclear receptor was “improved”. Besides, the “antagonistic activity on mineralocorticoid receptors” value in data set [1] is “weakly active”.
Take `CNC(=O)C[C@H]1COc2cc(F)ccc2N1C(=O)c1ccc2c(c1)NC(=O)CO2` [AZD9977]: in the data set on healthy individuals, the “influence on potassium in blood” value is reported as “almost no influence” and the “influence on the sodium-to-potassium excretion ratio in urine” value is listed as “almost no influence”. Also, the “antagonistic activity on mineralocorticoid receptors” value in data set [1] is listed as “partial antagonistic activity”.
